# System: house dust mite (D. Pteronyssinus) extract (HDME) sensitized and challenged mice
# Assay: Airway hyper-reactivity and lung mechanics in house dust mite extract sensitized mice fed purified MCF diets
# Assay type: in vivo
# Conditions: mice fed purified MCF diet, 100 mg/day (4 g/kg body weight); for overall airway constriction (Rrs) induced by increasing dose of methacholine: FIG. 1, from six weeks before HDME sensitization; for ability of the lungs to stretch (Crs, lung compliance) in response to increasing dose of methacholine: FIG. 2; for stiffness of the lungs (Ers) in response to increasing dose of methacholine: FIG. 3; for amount of forcefully exhaled air (FEV) in response to increasing dose of methacholine: FIG. 4
# Procedure: Mice were fed with standard, coconut oil or MCF supplemented diets starting six weeks before allergen sensitization. Isofluorane anesthetized mice received 100 ug house dust mite (D. Pteronyssinus) extract (HDME) (Greer Labs, NC) in […] by nasal aspiration. Five days later mice were challenged daily with 10 ug HDME for 5 days. Three days, after the last HDME exposure, airway hyper-reactivity is measured and lungs collected for analysis. The diets were 15 kcal % fat at a dose of 21 g coconut oil or purified MCF per kg diet. Based on the daily food intake of 4.75 g/day/25 g mouse, each mouse consumes 100 mg of coconut oil or MCF per day. The results of this examples are shown in FIGS. 1-4, which show the results with the mice treated with the various fatty acids, which are present mainly as triglycerides in coconut oil.
Compound,overall airway constriction (Rrs) induced by increasing dose of methacholine,"ability of the lungs to stretch (Crs, lung compliance) in response to increasing dose of methacholine",stiffness of the lungs (Ers) in response to increasing dose of methacholine,amount of forcefully exhaled air (FEV) in response to increasing dose of methacholine
"CCCCCCCCCC(=O)O [C10, capric acid]",inhibited,improved,decreased,increased
"CCCCCCCCCCCCCC(=O)O [C14, myristic acid]",inhibited,improved,decreased,increased
